Data published in US11130780B2, “Inhibitors of growth factor activation enzymes” (Washington University, priority 2015, dated 2021).
pKi: −log10 of the molar value. Read-outs that look alike come from different tables or passages of the source. Starred links: 1 amine or outer side, 2 acyl side, 3 side chain; linkers in the order of their positions; H or OH if unused. Non-standard residues stand in square brackets, D forms with d. Residues, ends and D or L forms follow the SMILES beside them. *: point of attachment. X1 = N=C(N)NCCC[C@H](N[*:1])C(=O)c1nc2ccc(C(=O)[*:2])cc2s1; ACC = NC(=O)Cc1cc(=O)oc2cc(N*)ccc12

Key:
Assay type in all cases: biochemical
hepsin [1] = target: T1, hepsin (Homo sapiens, UniProt P05981); experiment: P4-P2 substrate specificity using HyCoSuL, hepsin; parameters: concentration or dose not given beside the values; details: HyCoSuL substrate library; for P2 Position % Activity Hepsin: amino acid fixed at P2 position; for P3 Position % Activity Hepsin: amino acid fixed at P3 position; for P4 Position % Activity Hepsin: amino acid fixed at P4 position
T1 construct: purchased R&D Systems 4776-SE-010
T1 sequence (P05981 163-417 limits assumed): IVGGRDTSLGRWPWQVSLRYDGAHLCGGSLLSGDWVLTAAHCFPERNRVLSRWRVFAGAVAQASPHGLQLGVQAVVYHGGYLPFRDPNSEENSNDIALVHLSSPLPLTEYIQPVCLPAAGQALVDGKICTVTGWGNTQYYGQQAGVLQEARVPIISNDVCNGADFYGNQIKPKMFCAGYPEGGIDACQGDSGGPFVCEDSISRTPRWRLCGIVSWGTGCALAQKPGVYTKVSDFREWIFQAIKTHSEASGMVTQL
T1 sequence (P05981 45-162 partner limits assumed): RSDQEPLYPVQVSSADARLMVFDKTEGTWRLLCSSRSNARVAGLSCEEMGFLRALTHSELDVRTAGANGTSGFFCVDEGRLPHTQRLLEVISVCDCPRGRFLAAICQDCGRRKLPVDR
Description: (§1) Each of the P4, P3, and P2 sublibraries were screened at the 100 μM concentration with hepsin either HGFA in a 100 μL final volume per well (99 μL of protease in buffer+1 μL of 10 mM substrates mixture). The total time of the assay was 30 minutes, however only linear portions of the progress curve (5-15 minutes) were used for velocity (RFU/s) calculations. Each sublibrary screening was repeated at least 3-times and the average value calculated from each measurement was used to create the substrate specificity matrix—the best recognized amino acid in each position was set to 100%, and other amino acids were adjusted accordingly.
(§2) Recombinant human hepsin (10 μg in 20 uL, 4776-SE-010, R&D Systems) was added to the 100 μL of activation buffer (0.1 M Tris, 0.15 M NaCl, 0.01 M CaCl2, 0.05% TRITON-X, pH=8.0) and incubated at 37° C. for 24 hours (hepsin concentration in activation buffer 2 μM). Once activated hepsin was diluted in assay buffer (0.05 M Tris, pH=9.0) to the final concentration of 4 nM and incubated at 37° C. for 15 minutes before added to a substrate.

HGFA [2] = target: T2, HGFA (Homo sapiens, UniProt Q04756); experiment: P1 substrate specificity using Ac-Ala-Arg-Leu-P1-ACC individual substrate library, HGFA; details: substrate 5 μM; best amino acid set to 100%
T2 sequence (Q04756 408-655 limits assumed): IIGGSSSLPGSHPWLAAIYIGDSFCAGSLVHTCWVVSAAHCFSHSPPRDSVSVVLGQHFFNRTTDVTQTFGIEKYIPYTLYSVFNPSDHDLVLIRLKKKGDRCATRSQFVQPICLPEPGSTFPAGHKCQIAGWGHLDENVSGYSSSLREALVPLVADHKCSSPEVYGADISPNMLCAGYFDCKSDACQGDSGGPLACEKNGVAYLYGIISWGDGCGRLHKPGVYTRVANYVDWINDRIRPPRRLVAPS
T2 sequence (Q04756 373-407 partner limits assumed): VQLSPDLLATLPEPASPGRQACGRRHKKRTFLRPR
Description: (§3) HFGA enzyme was diluted in the assay buffer (0.15 M NaCl, 0.025 M Tris, 0.005 M CaCl2, pH=8.0) to the final concentration of 10-20 nM (depending of sublibrary) and incubated at 25° C. for 30 minutes before added to a substrate.
(§4) The protocol for both enzymes activation and incubation are as the same as in HyCoSuL screening. The P1 individual substrate library was used at the final concentration of 5 μM. The total time of the assay was 30 min, however only linear portions of the progress curve (5-15 minutes) were used for velocity (RFU/s) calculations. Each screening for hepsin either HGFA was repeated 3-times and the average value for each measurement was used to create the substrate specificity matrix.

HGFA [3] = target: T2, HGFA; experiment: P4-P2 substrate specificity using HyCoSuL, HGFA; parameters: P3 Position % Activity HGFA / P2 Position % Activity HGFA: concentration or dose not given beside the values; P4 Position % Activity HGFA: tested at 100 µM; details: HyCoSuL substrate library; for P2 Position % Activity HGFA: amino acid fixed at P2 position; for P3 Position % Activity HGFA: amino acid fixed at P3 position; for P4 Position % Activity HGFA: amino acid fixed at P4 position
Description: as §1, §3

hepsin [4] = target: T1, hepsin; experiment: P1 substrate specificity using Ac-Ala-Arg-Leu-P1-ACC individual substrate library, hepsin; details: substrate 5 μM; best amino acid set to 100%
Description: as §2, §4

Factor Xa = Factor Xa (Homo sapiens, UniProt P00742); experiment: Chromogenic kinetic enzyme assay of Factor Xa; details: Table 6.2; headed Fluorogenic Assay; read-out: Factor Xa Ki
Factor Xa, sequence (P00742 235-488 limits assumed): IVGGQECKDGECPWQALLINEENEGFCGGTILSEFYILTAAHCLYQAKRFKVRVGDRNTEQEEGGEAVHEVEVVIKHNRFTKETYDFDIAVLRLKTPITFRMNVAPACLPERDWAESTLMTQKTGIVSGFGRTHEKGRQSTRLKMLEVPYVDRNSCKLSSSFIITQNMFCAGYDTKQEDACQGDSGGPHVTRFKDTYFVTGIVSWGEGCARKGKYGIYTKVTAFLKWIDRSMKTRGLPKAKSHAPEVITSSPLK
Factor Xa, sequence (P00742 41-179 partner limits assumed): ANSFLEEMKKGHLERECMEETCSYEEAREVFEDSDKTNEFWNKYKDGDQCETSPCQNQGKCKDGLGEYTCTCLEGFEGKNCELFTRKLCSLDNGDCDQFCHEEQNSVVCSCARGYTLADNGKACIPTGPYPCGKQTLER
Description: (§5) Inhibitors (11-pt serial dilutions, 0-20 μM final concentration) were serially diluted in DMSO (2% DMSO final concentration) and then mixed with recombinant thrombin (0.15 nM final concentration) or Factor Xa (0.35 nM final concentration) in TNC buffer (25 mM Tris, 150 mM NaCl, 5 mM CaCl2, 0.01% TRITON X-100, pH 8) using clear 384 well plates. […] Changes in absorbance at 405 nm were measured over time in a Biotek Synergy 2 plate (Winnoski, Vt.). Using GraphPad Prism version 6.04 software program, (GraphPad Software, San Diego, Calif., www.graphpad.com), a four parameter curve fit was used to determine the inhibitor IC50s from a plot of the mean reaction velocity versus the inhibitor concentration. Ki values were calculated from the IC50 values using the Cheng and Prusoff equation (Ki=IC50/(1+[S]/Km).

HGFA [5] = target: T3, HGFA (Homo sapiens, UniProt Q04756); experiment: Fluorescent kinetic enzyme inhibitor assay of HGFA; details: read-out: HGFA Ki
T3 construct: His6 tag (N); seven amino acid spacer and seven amino acid TEV cleavage site (N); Honey Bee melittin signal peptide (N); made in house; host or cells: High 5 insect cells (baculovirus; virus raised in Sf9)
T3 sequence (Q04756 373-655): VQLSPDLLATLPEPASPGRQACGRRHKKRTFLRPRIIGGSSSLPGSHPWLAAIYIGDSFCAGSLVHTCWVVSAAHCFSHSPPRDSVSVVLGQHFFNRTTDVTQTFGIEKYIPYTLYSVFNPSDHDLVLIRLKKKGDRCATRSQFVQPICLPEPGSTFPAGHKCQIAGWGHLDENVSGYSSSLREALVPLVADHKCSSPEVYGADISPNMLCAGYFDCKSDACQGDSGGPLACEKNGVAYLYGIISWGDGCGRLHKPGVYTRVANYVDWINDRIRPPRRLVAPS
In short: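 Recombinant His-tagged HGFA residues 373-655 from insect cells, with substrate at Km. Inhibitors in 11-point dilutions, 0-20 μM final, 2% DMSO, fluorescence (ex 380/em 460 nm) followed over time at room temperature. IC50 from four-parameter fit of mean velocity, average of three experiments.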

matriptase = target: T4, matriptase (Homo sapiens, UniProt Q9Y5Y6); experiment: Fluorescent kinetic enzyme inhibitor assay of matriptase
T4 construct: Charles Craik, UCSF (obtained from another laboratory)
T4 sequence (Q9Y5Y6 615-855 limits assumed): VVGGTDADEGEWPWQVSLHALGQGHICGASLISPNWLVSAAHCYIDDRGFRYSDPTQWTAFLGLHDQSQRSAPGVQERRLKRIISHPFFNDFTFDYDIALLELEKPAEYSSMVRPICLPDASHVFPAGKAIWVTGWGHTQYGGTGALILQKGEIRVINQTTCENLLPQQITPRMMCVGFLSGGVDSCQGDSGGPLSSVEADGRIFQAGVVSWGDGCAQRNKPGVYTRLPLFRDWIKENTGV
In short: (§6)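 Fluorescence (ex 380/em 460 nm) followed kinetically at room temperature; IC50 from four-parameter fit of mean velocity versus concentration, averaged over three experiments.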

thrombin = thrombin (Homo sapiens, UniProt P00734); experiment: Chromogenic kinetic enzyme assay of thrombin; details: Table 6.2; headed Fluorogenic Assay; read-out: Thrombin Ki
Description: as §5

hepsin [6] = target: T1, hepsin; experiment: Fluorescent kinetic enzyme inhibitor assay of hepsin; details: read-out: hepsin Ki
In short: as §6

| Compound | P2 Position % Activity Hepsin (hepsin [1]) | P3 Position % Activity Hepsin (hepsin [1]) | P4 Position % Activity Hepsin (hepsin [1]) | % activity, P1 position, HGFA (HGFA [2]) | P2 Position % Activity HGFA (HGFA [3]) | P3 Position % Activity HGFA (HGFA [3]) | P4 Position % Activity HGFA (HGFA [3]) | % activity, P1 position, Hepsin (hepsin [4]) | pKi (Factor Xa) | pKi (HGFA [5]; Table 6.1, Fluorogenic Assay) | pKi (HGFA [5]) | pKi (matriptase) | pKi (thrombin) | pKi (hepsin [6]) | pKi (matriptase; Table 6.1, Fluorogenic Assay) |
| --- | --- | --- | --- | --- | --- | --- | --- | --- | --- | --- | --- | --- | --- | --- | --- |
| CC(=O)N[C@@H](C)C(=O)N[C@@H](CCCNC(=N)N)C(=O)N[C@@H](CC(C)C)C(=O)N[C@@H](CCCNC(=N)N)C(=O)Nc1ccc2c(CC(N)=O)cc(=O)oc2c1 [Ac-Ala-Arg-Leu-Arg-ACC] (Ac-ARLR-{ACC}) | 57.23% | 70.75% | 80.32% | 100.00% | 2.08% | 43.98% | 23.62% | 100.00% |  |  |  |  |  |  |  |
| CC(=O)N[C@@H](CCCCN)C(=O)N[C@@H](CCC(N)=O)C(=O)N[C@@H](CC(C)C)C(=O)N[C@@H](CCCNC(=N)N)C(=O)c1nc2ccc(C(=O)N[C@H](C(N)=O)C(C)C)cc2s1 [Compound 7055, Ac-KQLR(SEQ ID NO: 1)-Kbt-Val—NH2] (Ac-KQL[X1]V-NH2) |  |  |  |  |  |  |  |  | 7.18 | 7.92 | 7.89 | 8.15 | 5.49 | 9.52 |  |
| CC(=O)N[C@@H](CCCCN)C(=O)N[C@@H](CCCNC(=N)N)C(=O)N[C@@H](CC(C)C)C(=O)N[C@@H](CCCNC(=N)N)C(=O)c1nc2ccc(C(=O)N[C@H](C(N)=O)C(C)C)cc2s1 [Compound 7115, Ac-KRLR(SEQ ID NO: 8)-Kbt-Val—NH2] (Ac-KRL[X1]V-NH2) |  |  |  |  |  |  |  |  | 7.77 | 8.23 |  |  | 5.81 |  | 8.13 |
| D-Ala | 0.00% | 48.09% | 18.44% | 0.00% | 0.00% | 9.84% | 7.11% | 0.00% |  |  |  |  |  |  |  |
| D-Asn | 0.00% | 38.75% | 18.48% | 0.00% | 0.00% | 15.16% | 7.38% | 0.00% |  |  |  |  |  |  |  |
| D-Asp | 0.00% | 17.18% | 1.98% | 0.00% | 0.00% | 5.37% | 2.25% | 0.05% |  |  |  |  |  |  |  |
| D-Gln | 0.00% | 97.80% | 20.13% | 0.00% | 0.00% | 13.84% | 8.03% | 0.00% |  |  |  |  |  |  |  |
| D-Phe | 0.00% | 24.92% | 13.15% | 0.00% | 0.00% | 15.22% | 8.13% |  |  |  |  |  |  |  |  |
